One assay concerns the target T1, KRAS G12V (Homo sapiens, UniProt P01116, G12V).
T1 construct: SW620-KRAS (G12V)-HiBit-KI cell (Pharmaron); host or cells: SW620-KRAS (G12V)-HiBit-KI cells (HiBiT knock-in at the endogenous KRAS locus)
As to the kind of experiment: KRAS G12V HiBit assay. The format is cell-based. The note with it: SW620-KRAS (G12V)-HiBit-KI cells, compound treatment for 24 hours, class symbols. The procedure:
Day 1. […] Rinsed cultivated cells in T-75 flasks with 5 mL PBS (Solarbio, P1020-500). […] Inactivated trypsin by adding excessive serum containing medium. Harvested the cells from flask into cell culture medium and counted the cell number.
Day 2. Test compounds were dissolved at 0.3 mM in DMSO (Solarbio, D8371) as stock solution. […] Performed 3-fold, 10-points dilution via transferring 15 μL compound into 30 μL DMSO by using TECAN liquid handler (TECAN, Freedom EVO200). […] After compound treatment for 24 hours, the plate was removed from incubators and equilibrated at room temperature for 15 minutes. Prepare the HiBit reagent (Promega, N3040) by mixing 10 mL of Nano-Glo®-HiBiT Lytic Buffer with 200 μL of Nano-Glo®-HiBiT Lytic Substrate and 100 μL of LgBiT Protein. Added 20 μL of HiBit reagent into each well of the cell plate and spun the plates at room temperature at 1,000 RPM for 1 minute.
The degradation activity was calculated using the following formula:
(§1) [formula] where HC (high control) is obtained from cells treated with 0.1% DMSO only.
In general terms: With HiBiT, luminescence reflects the tagged protein that the partner subunit can reach.

The next assay has as its target T2, KRAS G12D (Homo sapiens, UniProt P01116, G12D).
T2 construct: AsPc-1-KRAS (G12D)-HiBit-KI cell (Pharmaron); host or cells: AsPc-1-KRAS (G12D)-HiBit-KI cells (HiBiT knock-in at the endogenous KRAS locus)
Briefly: KRAS G12D HiBit assay. The format is cell-based. The note with it: AsPc-1-KRAS (G12D)-HiBit-KI cell, compound treatment for 24 hours; for DC50: absolute DC50. The procedure: Day 1. […] Allowed cells to reach approximately 80% confluence before splitting. Rinsed cultivated cells in T-75 flasks with 5 mL PBS (Solarbio, P1020-500). […] Inactivated trypsin by adding excessive serum containing medium. Harvested the cells from flask into cell culture medium and counted the cell number.
Day 2. Test compounds were dissolved at 0.3 mM in DMSO (Solarbio, D8371) as stock solution. […] Performed 3-fold, 10-points dilution via transferring 15 μL compound into 30 μL DMSO by using TECAN liquid handler (TECAN, Freedom EVO200).
Day 3. After compound treatment for 24 hours, removed the plate from incubators and equilibrated at room temperature for 15 minutes. Prepared the HiBit reagent (Promega, N3040) by mixing 10 mL of Nano-Glo®-HiBiT Lytic Buffer with 200 μL of Nano-Glo®-HiBiT Lytic Substrate and 100 μL of LgBiT Protein. Added 20 μL of HiBit reagent into each well of the cell plate and spun the plates at room temperature at 1,000 RPM for 1 minute.
The inhibition activity was calculated using the following formula:
as §1

The mark [1] stands for this setting: numeric bounds given in place of class symbols.

Results on 14 compounds are retold here after US12599672B2, “KRAS proteolysis targeting chimeras” (PAQ Therapeutics Inc., priority 2023, dated 2026).

T2 sequence (P01116 1-188 isoform P01116-2 G12D): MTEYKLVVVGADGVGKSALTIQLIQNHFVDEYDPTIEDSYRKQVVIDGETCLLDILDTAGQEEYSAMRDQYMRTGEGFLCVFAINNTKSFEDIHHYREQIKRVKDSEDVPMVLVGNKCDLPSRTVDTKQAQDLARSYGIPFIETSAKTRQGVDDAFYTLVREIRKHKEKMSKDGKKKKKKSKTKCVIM
T1 sequence (P01116 1-188 isoform P01116-2 G12V): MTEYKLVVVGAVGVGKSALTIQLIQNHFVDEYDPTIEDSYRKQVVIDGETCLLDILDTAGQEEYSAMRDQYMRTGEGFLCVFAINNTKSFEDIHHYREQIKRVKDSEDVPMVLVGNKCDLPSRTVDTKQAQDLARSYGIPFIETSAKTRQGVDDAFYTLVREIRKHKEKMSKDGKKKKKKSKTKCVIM

`C#Cc1c(F)ccc2cccc(-c3ncc4c(N5CCC[C@@](C)(O)C5)nc(OCC5(CN6CCC(CN7CCN(c8ccc9c(c8)C(=O)N(C8CCC(=O)NC8=O)C9=O)CC7)CC6)CC5)nc4c3F)c12` (stereo partly drawn) [Compound 49]: the DC50 on KRAS G12V was over 100 nM; on KRAS G12D (setting [1]), over 160 nM.

`C#Cc1c(F)ccc2cc(O)cc(-c3ncc4c(N5CCC[C@@](C)(O)C5)nc(OCC5(CN6CCC7(CC6)CN(c6ccc8c(c6)n(C)c(=O)n8C6CCC(=O)NC6=O)C7)CC5)nc4c3F)c12` (stereo partly drawn) [Compound 33]: the DC50 at KRAS G12V is over 100 nM; on KRAS G12D (class symbols) it was over 300 nM.

For `CCc1c(F)ccc2cc(O)cc(-c3ccc4c(N5CCC[C@@](C)(O)C5)nc(OCC56CCCN5C(COC(=O)N5CCC(CN7CCC(c8ccc9c(c8)n(C)c(=O)n9C8CCC(=O)NC8=O)CC7)CC5)CC6)nc4c3F)c12` (stereo partly drawn) [Compound 304, (7a-(((7-(8-ethyl-7-fluoro-3-hydroxynaphthalen-1-yl)-8-fluoro-4-((R)-3-hydroxy-3-methylpiperidin-1-yl)quinazolin-2-yl)oxy)methyl)hexahydro-1H-pyrrolizin-3-yl)methyl 4-((4-(1-(2,6-dioxopiperidin-3-yl)-3-methyl-2-oxo-2,3-dihydro-1H-benzo[d]imidazol-5-yl)piperidin-1-yl)methyl)piperidine-1-carboxylate], the DC50 at KRAS G12V and at KRAS G12D (setting [1]) was over 100 nM each time.

On to `CCc1c(F)ccc2cc(O)cc(-c3ccc4c(N5CCC[C@@](C)(O)C5)nc(OC[C@]56CCCN5[C@H](COC(=O)N5CCC(CN7CCC(c8ccc9c(c8)n(C)c(=O)n9C8CCC(=O)NC8=O)CC7)CC5)CC6)nc4c3F)c12` (stereo partly drawn) [Compound 318, ((3S,7aR)-7a-(((7-(8-ethyl-7-fluoro-3-hydroxynaphthalen-1-yl)-8-fluoro-4-((R)-3-hydroxy-3-methylpiperidin-1-yl)quinazolin-2-yl)oxy)methyl)hexahydro-1H-pyrrolizin-3-yl)methyl 4-((4-(1-(2,6-dioxopiperidin-3-yl)-3-methyl-2-oxo-2,3-dihydro-1H-benzo[d]imidazol-5-yl)piperidin-1-yl)methyl)piperidine-1-carboxylate], for which the DC50 on KRAS G12V and at KRAS G12D (setting [1]) was over 100 nM each time.

Take `CCc1c(F)ccc2cc(O)cc(-c3ncc4c(N5CCC[C@@](C)(O)C5)nc(OC[C@@]56CCCN5[C@H](COC(=O)N5CCC(N7CC8(CCN(c9ccc%10c(c9)n(C)c(=O)n%10C9CCC(=O)NC9=O)CC8)C7)CC5)CC6)nc4c3F)c12` (stereo partly drawn) [Compound 362, ((3S,7aS)-7a-(((7-(8-ethyl-7-fluoro-3-hydroxynaphthalen-1-yl)-8-fluoro-4-((R)-3-hydroxy-3-methylpiperidin-1-yl)pyrido[4,3-d]pyrimidin-2-yl)oxy)methyl)hexahydro-1H-pyrrolizin-3-yl)methyl 4-(7-(1-(2,6-dioxopiperidin-3-yl)-3-methyl-2-oxo-2,3-dihydro-1H-benzo[d]imidazol-5-yl)-2,7-diazaspiro[3.5]nonan-2-yl)piperidine-1-carboxylate]: the values for the DC50 at KRAS G12V and on KRAS G12D (class symbols) were under 10 nM and under 100 nM, respectively.

Take `C[C@H]1CN(CC(=O)N2CCC(CN3CCC(c4ccc5c(c4)n(C)c(=O)n5C4CCC(=O)NC4=O)CC3)CC2)CCCN1c1nccc(-c2noc([C@]3(C)CCCc4sc(N)c(C#N)c43)n2)n1` (stereo partly drawn) [Compound 211, (4R)-2-amino-4-(3-{2-[(2S)-4-{2-[4-({4-[1-(2,6-dioxopiperidin-3-yl)-3-methyl-2-oxo-1,3-benzodiazol-5-yl]piperidin-1-yl}methyl)piperidin-1-yl]-2-oxoethyl}-2-methyl-1,4-diazepan-1-yl]pyrimidin-4-yl}-1,2,4-oxadiazol-5-yl)-4-methyl-6,7-dihydro-5H-1-benzothiophene-3-carbonitrile]: the DC50 on KRAS G12V was over 100 nM; at KRAS G12D (class symbols) it was over 300 nM. The same compound showed a Dmax on KRAS G12D (class symbols) of under 15%.

Consider `C#Cc1c(F)ccc2cc(O)cc(-c3ncc4c(N5CCC[C@@](C)(O)C5)nc(OCC5(CN6CCC(CN7CCC(c8ccc9c(c8)n(C)c(=O)n9C8CCC(=O)NC8=O)CC7)CC6)CC5)nc4c3F)c12` (stereo partly drawn) [Compound 47], for which the results for the DC50 on KRAS G12V and on KRAS G12D (class symbols) were over 100 nM and under 100 nM, respectively.

As to `C#Cc1c(F)ccc2cc(O)cc(-c3ccc4c(N5CCC[C@@](C)(O)C5)nc(OCC5(CN6CCC(CN7CCN(c8ccc9c(c8)n(C)c(=O)n9C8CCC(=O)NC8=O)CC7)CC6)CC5)nc4c3F)c12` (stereo partly drawn) [Compound 12], the DC50 was over 100 nM on KRAS G12V and under 100 nM on KRAS G12D (class symbols).

As for `CCc1c(F)ccc2cc(O)cc(-c3ncc4c(N5CCC[C@@](C)(O)C5)nc(OC[C@]56CCCN5[C@H](COC(=O)N5CCC(Oc7cccc8c7n(C)c(=O)n8C7CCC(=O)NC7=O)CC5)CC6)nc4c3F)c12` (stereo partly drawn) [Compound 306, ((3S,7aR)-7a-(((7-(8-ethyl-7-fluoro-3-hydroxynaphthalen-1-yl)-8-fluoro-4-((R)-3-hydroxy-3-methylpiperidin-1-yl)pyrido[4,3-d]pyrimidin-2-yl)oxy)methyl)hexahydro-1H-pyrrolizin-3-yl)methyl 4-((1-(2,6-dioxopiperidin-3-yl)-3-methyl-2-oxo-2,3-dihydro-1H-benzo[d]imidazol-4-yl)oxy)piperidine-1-carboxylate], the DC50 on KRAS G12V was 10 to 100 nM; at KRAS G12D (setting [1]), over 100 nM.

Consider `CCc1c(F)ccc2cc(O)cc(-c3ncc4c(N5CCC[C@@](C)(O)C5)nc(OC[C@@]56CCCN5C(COCCCN5CCC(c7ccc8c(c7)n(C)c(=O)n8C7CCC(=O)NC7=O)CC5)CC6)nc4c3F)c12` (stereo partly drawn) [Compound 490, 3-(5-(1-(3-(((7aS)-7a-(((7-(8-ethyl-7-fluoro-3-hydroxynaphthalen-1-yl)-8-fluoro-4-((R)-3-hydroxy-3-methylpiperidin-1-yl)pyrido[4,3-d]pyrimidin-2-yl)oxy)methyl)hexahydro-1H-pyrrolizin-3-yl)methoxy)propyl)piperidin-4-yl)-3-methyl-2-oxo-2,3-dihydro-1H-benzo[d]imidazol-1-yl)piperidine-2,6-dione], for which the DC50 at KRAS G12V and at KRAS G12D (setting [1]) was over 100 nM in each case.

In the case of `CCc1c(F)ccc2cccc(-c3ncc4c(N5CCC[C@@](C)(O)C5)nc(OC[C@@]56CCCN5[C@H](COC(=O)NCCOCCOc5ccc7c(c5)n(C)c(=O)n7C5CCC(=O)NC5=O)CC6)nc4c3F)c12` (stereo partly drawn) [Compound 103, ((3S,7aS)-7a-(((7-(8-ethyl-7-fluoronaphthalen-1-yl)-8-fluoro-4-((R)-3-hydroxy-3-methylpiperidin-1-yl)pyrido[4,3-d]pyrimidin-2-yl)oxy)methyl)hexahydro-1H-pyrrolizin-3-yl)methyl (2-(2-((1-(2,6-dioxopiperidin-3-yl)-3-methyl-2-oxo-2,3-dihydro-1H-benzo[d]imidazol-5-yl)oxy)ethoxy)ethyl) carbamate], the DC50 at KRAS G12V is over 100 nM. On KRAS G12D (class symbols), this compound yielded a DC50 of over 300 nM and a Dmax of 15 to 50%.

Take `C#Cc1c(F)ccc2cccc(-c3ncc4c(N5CCC[C@@](C)(O)C5)nc(OC[C@]56CCCN5[C@@H](COC(=O)N5CCC(CN7CCC(c8ccc9c(c8)n(C)c(=O)n9C8CCC(=O)NC8=O)CC7)CC5)CC6)nc4c3F)c12` (stereo partly drawn) [Compound 131]: the DC50 was over 100 nM on KRAS G12V and over 300 nM on KRAS G12D (class symbols).

As to `C#Cc1c(F)ccc2cccc(-c3ncc4c(N5CCCC(C#N)CC5)nc(OC[C@@]56CCCN5[C@H](COC(=O)NCCOCCOc5ccc7c(c5)n(C)c(=O)n7C5CCC(=O)NC5=O)CC6)nc4c3F)c12` (stereo partly drawn) [Compound 117, ((3S,7aS)-7a-(((4-(4-Cyanoazepan-1-yl)-7-(8-ethynyl-7-fluoronaphthalen-1-yl)-8-fluoropyrido[4,3-d]pyrimidin-2-yl)oxy)methyl)hexahydro-1H-pyrrolizin-3-yl)methyl (2-(2-((1-(2,6-dioxopiperidin-3-yl)-3-methyl-2-oxo-2,3-dihydro-1H-benzo[d]imidazol-5-yl)oxy)ethoxy)ethyl) carbamate], the DC50 at KRAS G12V was over 100 nM; on KRAS G12D (class symbols) it was over 300 nM.

As to `C#Cc1c(F)ccc2cccc(-c3ncc4c(N5CCC[C@@](C)(O)C5)nc(OC[C@@]56CCCN5[C@H](COC(=O)N5CCC(N7CCC(c8cccc9c8n(C)c(=O)n9C8CCC(=O)NC8=O)CC7)CC5)CC6)nc4c3F)c12` (stereo partly drawn) [Compound 147], the DC50 on KRAS G12V and on KRAS G12D (setting [1]) was over 100 nM each time.
